Reference: patent US20240391948A1, “NOVEL COMPOUND THAT INHIBITS TNF-ALPHA GENERATION AND INFLAMMASOME ACTIVITY AND PREPARATION METHOD THEREFOR” (SHAPERON INC., priority 2021, published 2024)

Key:
Assay type in all cases: cell-based
[1] = test system: J774A.1 (Mouse BALB/c monocyte macrophage cell line) cells; test: LPS-induced TNF-α secretion inhibition in J774A.1 cells; settings: J774.A1, 1 μM compound, graded compared to taurodeoxycholic acid (positive control), read-out: TNF-α production inhibition grade
Method in brief: (§1)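 Mouse J774A.1 macrophages treated with 1 μM compound; TNF-α secretion measured after LPS stimulation and IL-1β secretion after LPS+ATP stimulation. Suppression graded against taurodeoxycholic acid: A over 100%, B 50–100%, C 20–50%, D under 20%.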

[2] = test system: J774A.1 (Mouse BALB/c monocyte macrophage cell line) cells; test: LPS+ATP-induced IL-1β secretion inhibition in J774A.1 cells; settings: J774.A1, 1 μM compound, graded compared to taurodeoxycholic acid (positive control), read-out: IL-1β production inhibition grade
Method in brief: as §1

[3] = test system: U937 cells (human monocytic cell line); test: Pam2CSK4-induced TNF-α secretion inhibition in PMA-differentiated U937 cells; settings: U-937, U937 cells differentiated with PMA, read-out: TNF-α production inhibition grade (IC50)
Method in brief: (§2)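 U937 cells were PMA-differentiated into macrophages and treated with compound before inflammatory stimulus. TNF-α secretion was induced with Pam2CSK4 and IL-1β secretion with BzATP. IC50 (μM) values are graded A-D, with separate cut-offs per cytokine.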

[4] = test system: U937 cells (human monocytic cell line); test: BzATP-induced IL-1β secretion inhibition in PMA-differentiated U937 cells; settings: U-937, U937 cells differentiated with PMA, read-out: IL-1β production inhibition grade (IC50)
Method in brief: as §2

Structure (SMILES) | inhibition at 1 µM [1] | inhibition at 1 µM [2] | IC50 [3] | IC50 [4]
CC(C)[C@H](CS(=O)(=O)O)NC(=O)CC[C@@H](C)[C@H]1CC[C@H]2[C@@H]3CC[C@@H]4C[C@H](O)CC[C@]4(C)[C@H]3C[C@H](O)[C@]12C [NC10033] | < 20% | 50 to 100% | 500 to 1000 nM | 100 to 200 nM
C[C@H](CCC(=O)N1CCC(S(=O)(=O)O)CC1)[C@H]1CC[C@H]2[C@@H]3CC[C@@H]4C[C@H](O)CC[C@]4(C)[C@H]3CC[C@]12C [NC10062] | < 20% | > 100% | 500 to 1000 nM | < 50 nM
C[C@H](CCC(=O)N1CC(S(=O)(=O)O)C1)[C@H]1CC[C@H]2[C@@H]3[C@H](O)C[C@@H]4C[C@H](O)CC[C@]4(C)[C@H]3C[C@H](O)[C@]12C [NC20012] | < 20% | > 100% | 500 to 1000 nM | < 50 nM
C[C@H](CCC(=O)N[C@H](CO)CS(=O)(=O)O)[C@H]1CC[C@H]2[C@@H]3CC[C@@H]4CC(=O)CC[C@]4(C)[C@H]3CC[C@]12C [NC30025] | > 100% | < 20% | 1000 to 2000 nM | ≥ 200 nM
C[C@H](CCC(=O)N1CC[C@H](S(=O)(=O)O)C1)[C@H]1CC[C@H]2[C@@H]3CC[C@@H]4CC(=O)CC[C@]4(C)[C@H]3CC[C@]12C [NC30033] | < 20% | 20 to 50% | 500 to 1000 nM | 50 to 100 nM
C[C@H](CCC(=O)N(CCO)CCS(=O)(=O)O)[C@H]1CC[C@H]2[C@@H]3CC[C@@H]4CC(=O)CC[C@]4(C)[C@H]3CC[C@]12C [NC30006] | < 20% | < 20% | 500 to 1000 nM | ≥ 200 nM
C[C@H](CCC(=O)N(CCN(C)C)CCS(=O)(=O)O)[C@H]1CC[C@H]2[C@@H]3CC[C@@H]4CC(=O)CC[C@]4(C)[C@H]3CC[C@]12C [NC30035] | > 100% | > 100% | 500 to 1000 nM | < 50 nM
CC[C@H]1[C@@H](O)[C@@H]2[C@H](C[C@H](O)[C@]3(C)[C@@H]([C@H](C)CCC(=O)N[C@@H](CS(=O)(=O)O)c4ccccc4)CC[C@@H]23)[C@@]2(C)CC[C@@H](O)C[C@@H]12 [NC50019] | < 20% | 50 to 100% | 1000 to 2000 nM | ≥ 200 nM
C[C@H](CCC(=O)N[C@H]1CCCC[C@H]1S(=O)(=O)O)[C@H]1CC[C@H]2[C@@H]3CC[C@@H]4CC(=O)CC[C@]4(C)[C@H]3CC[C@]12C [NC30027] | > 100% | > 100% | 500 to 1000 nM | < 50 nM
C[C@H](CCC(=O)NC1(CS(=O)(=O)O)CC1)[C@H]1CC[C@H]2[C@@H]3CC[C@@H]4C[C@H](O)CC[C@]4(C)[C@H]3C[C@H](O)[C@]12C [NC10047] | < 20% | 20 to 50% | 500 to 1000 nM | 100 to 200 nM
C[C@H](CCC(=O)N1CCC[C@H]1CS(=O)(=O)O)[C@H]1CC[C@H]2[C@@H]3CC[C@@H]4C[C@H](O)CC[C@]4(C)[C@H]3CC[C@]12C [NC10077] | < 20% | > 100% | < 500 nM | < 50 nM
C[C@H](CCC(=O)N1CC[C@@H](S(=O)(=O)O)C1)[C@H]1CC[C@H]2[C@@H]3CC[C@@H]4C[C@H](O)CC[C@]4(C)[C@H]3C[C@H](O)[C@]12C [NC10049] | < 20% | > 100% | < 500 nM | < 50 nM
C[C@H](CCC(=O)N[C@H]1CCCC[C@H]1S(=O)(=O)O)[C@H]1CC[C@H]2[C@@H]3[C@H](O)C[C@@H]4C[C@H](O)CC[C@]4(C)[C@H]3C[C@H](O)[C@]12C [NC20027] | < 20% | > 100% | ≥ 2000 nM | < 50 nM
CC(C)[C@H](CS(=O)(=O)O)NC(=O)CC[C@@H](C)[C@H]1CC[C@H]2[C@@H]3CC[C@@H]4C[C@H](O)CC[C@]4(C)[C@H]3CC[C@]12C [NC10073] | < 20% | 50 to 100% | < 500 nM | 50 to 100 nM
C[C@H](CCC(=O)NC1(CS(=O)(=O)O)CC1)[C@H]1CC[C@H]2[C@@H]3[C@H](O)C[C@@H]4C[C@H](O)CC[C@]4(C)[C@H]3C[C@H](O)[C@]12C [NC20032] | < 20% | 50 to 100% | ≥ 2000 nM | < 50 nM
C[C@H](CCC(=O)N1CCC[C@H]1CS(=O)(=O)O)[C@H]1CC[C@H]2[C@@H]3[C@H](O)C[C@@H]4C[C@H](O)CC[C@]4(C)[C@H]3C[C@H](O)[C@]12C [NC20021] | < 20% | < 20% | 1000 to 2000 nM | 50 to 100 nM
CC[C@H]1[C@@H](O)[C@@H]2[C@H](CC[C@]3(C)[C@@H]([C@H](C)CCC(=O)N[C@H](CO)CS(=O)(=O)O)CC[C@@H]23)[C@@]2(C)CC[C@@H](O)C[C@@H]12 [NC40025] | 20 to 50% | 20 to 50% | 500 to 1000 nM | 50 to 100 nM
CC(C)[C@@H](CS(=O)(=O)O)NC(=O)CC[C@@H](C)[C@H]1CC[C@H]2[C@@H]3CC[C@@H]4C[C@H](O)CC[C@]4(C)[C@H]3C[C@H](O)[C@]12C [NC10032] | < 20% | 50 to 100% | ≥ 2000 nM | 50 to 100 nM
C[C@H](CCC(=O)N1CCC[C@H](S(=O)(=O)O)C1)[C@H]1CC[C@H]2[C@@H]3CC[C@@H]4CC(=O)CC[C@]4(C)[C@H]3CC[C@]12C [NC30009] | 50 to 100% | 20 to 50% | 500 to 1000 nM | ≥ 200 nM
C[C@H](CCC(=O)N1CCC[C@@H]1CS(=O)(=O)O)[C@H]1CC[C@H]2[C@@H]3CC[C@@H]4CC(=O)CC[C@]4(C)[C@H]3CC[C@]12C [NC30020] | < 20% | 20 to 50% | ≥ 2000 nM | ≥ 200 nM
C[C@H](CCC(=O)N1CC[C@@H](S(=O)(=O)O)C1)[C@H]1CC[C@H]2[C@@H]3CC[C@@H]4C[C@H](O)CC[C@]4(C)[C@H]3CC[C@]12C [NC10090] | < 20% | < 20% | 500 to 1000 nM | ≥ 200 nM
CC[C@H]1[C@@H](O)[C@@H]2[C@H](CC[C@]3(C)[C@@H]([C@H](C)CCC(=O)NC[C@H](C)S(=O)(=O)O)CC[C@@H]23)[C@@]2(C)CC[C@@H](O)C[C@@H]12 [NC40022] | 20 to 50% | 20 to 50% | 500 to 1000 nM | ≥ 200 nM
C[C@H](CCC(=O)N1CCC[C@@H]1CS(=O)(=O)O)[C@H]1CC[C@H]2[C@@H]3CC[C@@H]4C[C@H](O)CC[C@]4(C)[C@H]3C[C@H](O)[C@]12C [NC10036] | < 20% | > 100% | ≥ 2000 nM | 100 to 200 nM
C[C@H](CCC(=O)NC[C@@H](C)S(=O)(=O)O)[C@H]1CC[C@H]2[C@@H]3CC[C@@H]4C[C@H](O)CC[C@]4(C)[C@H]3C[C@H](O)[C@]12C [NC10039] | 20 to 50% | 50 to 100% | 500 to 1000 nM | 50 to 100 nM
CC[C@H]1[C@@H](O)[C@@H]2[C@H](CC[C@]3(C)[C@@H]([C@H](C)CCC(=O)N[C@@H](CS(=O)(=O)O)c4ccccc4)CC[C@@H]23)[C@@]2(C)CC[C@@H](O)C[C@@H]12 [NC40019] | < 20% | > 100% | 1000 to 2000 nM | 100 to 200 nM
CC[C@H]1[C@@H](O)[C@@H]2[C@H](CC[C@]3(C)[C@@H]([C@H](C)CCC(=O)NC(C)(C)CS(=O)(=O)O)CC[C@@H]23)[C@@]2(C)CC[C@@H](O)C[C@@H]12 [NC40013] | < 20% | > 100% | 1000 to 2000 nM | < 50 nM
CC[C@H]1[C@@H](O)[C@@H]2[C@H](CC[C@]3(C)[C@@H]([C@H](C)CCC(=O)N4CCC[C@H]4CS(=O)(=O)O)CC[C@@H]23)[C@@]2(C)CC[C@@H](O)C[C@@H]12 [NC40021] | < 20% | 50 to 100% | 500 to 1000 nM | ≥ 200 nM
C[C@H](CCC(=O)N(CCS(=O)(=O)O)c1ccccc1)[C@H]1CC[C@H]2[C@@H]3CC[C@@H]4C[C@H](O)CC[C@]4(C)[C@H]3C[C@H](O)[C@]12C [NC10052] | 50 to 100% | 50 to 100% | 1000 to 2000 nM | 50 to 100 nM
CC[C@H]1[C@@H](O)[C@@H]2[C@H](C[C@H](O)[C@]3(C)[C@@H]([C@H](C)CCC(=O)N(CCS(=O)(=O)O)C4CCOCC4)CC[C@@H]23)[C@@]2(C)CC[C@@H](O)C[C@@H]12 [NC50008] | < 20% | > 100% | 500 to 1000 nM | < 50 nM
